{
  "source": "patent US10744114B2",
  "about": "“Use of eupatilin as pharmaceutical composition for prevention and treatment of fibrosis using EMT inhibitory activity” (OSTEONEUROGEN INC., priority 2016, dated 2020)",
  "key": {"[1]": {"tested_on": "bleomycin-induced pulmonary fibrosis", "test": "Fibrosis of lung tissue induced by bleomycin (Masson's trichrome)", "format": "in vivo, C57BL/6J mice", "details": "12 days after bleomycin 40 μg/head", "source_text": "Five-week-old male C57BL/6J mice (weight: 18.2 to 20.5 g) (KOATECH, Korea) were used as experimental animals, and each test group was composed of five experimental animals, as is summarized in Table 1 below.\nPulmonary fibrosis was induced by directly injecting a bleomycin solution into the lungs via the trachea according to the intratracheal instillation (IT) method of Kremer, Laxer and Berkman et al. Specifically, C57BL/6J mice were anesthetized through inhalation with 70% N2O and 30% O2 gas and 1.5% isoflurane, and the skin of the anterior neck thereof was excised and the organs under the muscle thereof were exposed and then carefully excised using ophthalmic surgical scissors. 50 μL of a bleomycin solution in distilled water was directly injected into the lungs all at once via the excised organ using a 1 mL syringe fitted with a 19-gauge injection needle having a blunt tip. […]\nEupatilin was used by being dissolved in a DPBS buffer (containing 1% DMSO), and the amount of eupatilin that was administered was 1 mL/kg, and the dose for each individual was calculated based on the recent body weight thereof 12 days after the administration of bleomycin, eupatilin was forcibly nasally administered once a day (5 times a week) for 1 week using a micropipette. […]"}, "ONGHEPA1 cells": {"tested_on": "ONGHEPA1 cells", "test": "Global gene expression analysis (RNA-Seq) and target gene analysis", "format": "cell-based, mouse", "details": "24 hr", "method": "For a mechanism for the therapeutic effect on fibrosis, the global gene expression of DMSO-treated ONGHEPA1 cells (a control group), ONGHEPA1 cells in which fibrosis was induced by TGF-β, and ONGHEPA1 cells treated with TGF-β and eupatilin was measured.\nThe cells were treated with DMSO, TGF-β or eupatilin for 24 hr, and total RNA was isolated to manufacture a library, after which about 10,000 expressed mRNA species in a total transcriptome of 30 Gb were analyzed using an Illumina High-seq sequencer."}},
  "data": [
    {"smiles": "COc1ccc(-c2cc(=O)c3c(O)c(OC)c(O)cc3o2)cc1OC", "note": "[eupatilin, 2-(3,4-dimethoxyphenyl)-5,7-dihydroxy-6-methoxy-chromone]", "values": [
      {"measurement": "inhibition of pulmonary fibrosis", "setting": "[1]; 20 μg eupatilin nasally once a day for 1 week", "value": "inhibited"},
      {"measurement": "inhibition of pulmonary fibrosis", "setting": "[1]; 40 μg eupatilin nasally once a day for 1 week", "value": "more effectively inhibited"},
      {"measurement": "expression of Fstl1", "setting": "ONGHEPA1 cells; TGF-β + eupatilin", "value": "inhibited to a level of almost zero"},
      {"measurement": "Log2fc A disintegrin-like and metallopeptidase (reprolysin type) with thrombospondin type 1 motif 2 (Adamts2)", "setting": "ONGHEPA1 cells; TGF-β vs TGF-β+eupatilin", "value": 2.08},
      {"measurement": "Log2fc A disintegrin-like and metallopeptidase with thrombospondin type 1 motif 12 (Adamts12)", "setting": "ONGHEPA1 cells; TGF-β vs TGF-β+eupatilin", "value": 2.09},
      {"measurement": "Log2fc AXL receptor tyrosine kinase (Axl)", "setting": "ONGHEPA1 cells; TGF-β vs TGF-β+eupatilin", "value": "−infinite"},
      {"measurement": "Log2fc Actin alpha 4 (Actn4)", "setting": "ONGHEPA1 cells; TGF-β vs TGF-β+eupatilin", "value": "infinite"},
      {"measurement": "Log2fc Actin, gamma2 (Actg2)", "setting": "ONGHEPA1 cells; TGF-β vs TGF-β+eupatilin", "value": "−5.83"},
      {"measurement": "Log2fc ArfGAP with SH3 domain, ankyrin repeat and PH domain 1 (Asap1)", "setting": "ONGHEPA1 cells; TGF-β vs TGF-β+eupatilin", "value": "−infinite"},
      {"measurement": "Log2fc Aurora kinase A (Aurka)", "setting": "ONGHEPA1 cells; TGF-β vs TGF-β+eupatilin", "value": "−15.3"},
      {"measurement": "Log2fc BTAF1 RNA polymerase II, B-TFIID transcription factor-associated (Btaf1)", "setting": "ONGHEPA1 cells; TGF-β vs TGF-β+eupatilin", "value": "−infinite"},
      {"measurement": "Log2fc C-terminal-binding protein 2 (Ctbp2)", "setting": "ONGHEPA1 cells; TGF-β vs TGF-β+eupatilin", "value": "infinite"},
      {"measurement": "Log2fc Caldesmon 1 (Cald1)", "setting": "ONGHEPA1 cells; TGF-β vs TGF-β+eupatilin", "value": "infinite"},
      {"measurement": "Log2fc Calreticulin (Calr)", "setting": "ONGHEPA1 cells; TGF-β vs TGF-β+eupatilin", "value": "−1.74"},
      {"measurement": "Log2fc Calumenin (Calu)", "setting": "ONGHEPA1 cells; TGF-β vs TGF-β+eupatilin", "value": "infinite"},
      {"measurement": "Log2fc Caveolin 1, Caveolae protein (Cav1)", "setting": "ONGHEPA1 cells; TGF-β vs TGF-β+eupatilin", "value": 1.76},
      {"measurement": "Log2fc Cell cycle associated protein 1 (Caprin1)", "setting": "ONGHEPA1 cells; TGF-β vs TGF-β+eupatilin", "value": "−infinite"},
      {"measurement": "Log2fc Cell migration inducing protein, hyaluronan binding (Cemip)", "setting": "ONGHEPA1 cells; TGF-β vs TGF-β+eupatilin", "value": "−2.75"},
      {"measurement": "Log2fc Coatomer protein complex, subunit gamma 1 (Copg1)", "setting": "ONGHEPA1 cells; TGF-β vs TGF-β+eupatilin", "value": "infinite"},
      {"measurement": "Log2fc Collagen type 1 alpha 1 (Col1a1)", "setting": "ONGHEPA1 cells; TGF-β vs TGF-β+eupatilin", "value": "−1.64"},
      {"measurement": "Log2fc Collagen type VII alpha1 (Col7a1)", "setting": "ONGHEPA1 cells; TGF-β vs TGF-β+eupatilin", "value": "−15.2"},
      {"measurement": "Log2fc Collagen type XV, alpha 1 (Col5a1)", "setting": "ONGHEPA1 cells; TGF-β vs TGF-β+eupatilin", "value": 2.26},
      {"measurement": "Log2fc Collagen, type III, alpha 1 (Col3a1)", "setting": "ONGHEPA1 cells; TGF-β vs TGF-β+eupatilin", "value": "infinite"},
      {"measurement": "Log2fc Collagen, type XI, alpha 1 (Col11a1)", "setting": "ONGHEPA1 cells; TGF-β vs TGF-β+eupatilin", "value": "−3.11"},
      {"measurement": "Log2fc Collagen, type XII, alpha 1 (Col12a1)", "setting": "ONGHEPA1 cells; TGF-β vs TGF-β+eupatilin", "value": 2.02},
      {"measurement": "Log2fc Colony stimulating factor 1 (macrophage) (Csf1)", "setting": "ONGHEPA1 cells; TGF-β vs TGF-β+eupatilin", "value": 2.15},
      {"measurement": "Log2fc Crystallin, zeta (quinone reductase)-like 1 (Cryzl1)", "setting": "ONGHEPA1 cells; TGF-β vs TGF-β+eupatilin", "value": "infinite"},
      {"measurement": "Log2fc Cyclin D2 (Ccnd2)", "setting": "ONGHEPA1 cells; TGF-β vs TGF-β+eupatilin", "value": 2.29},
      {"measurement": "Log2fc Dihydropyrimidinase-like 3 (Dpysl3)", "setting": "ONGHEPA1 cells; TGF-β vs TGF-β+eupatilin", "value": "infinite"},
      {"measurement": "Log2fc Doublecortin-like kinase 1 (Dclk1)", "setting": "ONGHEPA1 cells; TGF-β vs TGF-β+eupatilin", "value": 1.54},
      {"measurement": "Log2fc Dynein cytoplasmic 1 heavy chain 1 (Dync1h1)", "setting": "ONGHEPA1 cells; TGF-β vs TGF-β+eupatilin", "value": "−infinite"},
      {"measurement": "Log2fc Dysferlin (Dysf)", "setting": "ONGHEPA1 cells; TGF-β vs TGF-β+eupatilin", "value": 2.06},
      {"measurement": "Log2fc EH-domain containing 2 (Ehd2)", "setting": "ONGHEPA1 cells; TGF-β vs TGF-β+eupatilin", "value": "infinite"},
      {"measurement": "Log2fc Elastin (Eln)", "setting": "ONGHEPA1 cells; TGF-β vs TGF-β+eupatilin", "value": 3.28},
      {"measurement": "Log2fc Endoglin (Eng)", "setting": "ONGHEPA1 cells; TGF-β vs TGF-β+eupatilin", "value": "−infinite"},
      {"measurement": "Log2fc Endoplasmic reticulum-golgi intermediate compartment 1 (ERGIC1)", "setting": "ONGHEPA1 cells; TGF-β vs TGF-β+eupatilin", "value": "−1.26"},
      {"measurement": "Log2fc Ephrin B2 (Efnb2)", "setting": "ONGHEPA1 cells; TGF-β vs TGF-β+eupatilin", "value": 1.92},
      {"measurement": "Log2fc Epidermal growth factor-containing fibulin-like extracellular matrix protein 2 (Efemp2)", "setting": "ONGHEPA1 cells; TGF-β vs TGF-β+eupatilin", "value": 1.66},
      {"measurement": "Log2fc Exocyst complex component 4 (Exoc4)", "setting": "ONGHEPA1 cells; TGF-β vs TGF-β+eupatilin", "value": 2.9},
      {"measurement": "Log2fc Family with sequence similarity 175, member B (Fam175b)", "setting": "ONGHEPA1 cells; TGF-β vs TGF-β+eupatilin", "value": "−infinite"},
      {"measurement": "Log2fc Fibronectin 1 (Fn1)", "setting": "ONGHEPA1 cells; TGF-β vs TGF-β+eupatilin", "value": "infinite"},
      {"measurement": "Log2fc Fibronectin type III domain containing 1 (Fndc1)", "setting": "ONGHEPA1 cells; TGF-β vs TGF-β+eupatilin", "value": 1.75},
      {"measurement": "Log2fc Follistatin-like 1 (Fstl1)", "setting": "ONGHEPA1 cells; TGF-β vs TGF-β+eupatilin", "value": "infinite"},
      {"measurement": "Log2fc Fras 1 related extracellular matrix protein 1 (Frem1)", "setting": "ONGHEPA1 cells; TGF-β vs TGF-β+eupatilin", "value": 2.36},
      {"measurement": "Log2fc Heat shock protein 90, alpha (cytosolic), class A member 1(Hsp90aa1)", "setting": "ONGHEPA1 cells; TGF-β vs TGF-β+eupatilin", "value": "infinite"},
      {"measurement": "Log2fc Heparan sulfate 6-O-sulfotransferase 2 (Hs6st2)", "setting": "ONGHEPA1 cells; TGF-β vs TGF-β+eupatilin", "value": 3.26},
      {"measurement": "Log2fc Importin-4 (Ipo4)", "setting": "ONGHEPA1 cells; TGF-β vs TGF-β+eupatilin", "value": "−infinite"},
      {"measurement": "Log2fc Inhibition beta-A (Inhba)", "setting": "ONGHEPA1 cells; TGF-β vs TGF-β+eupatilin", "value": 2.19},
      {"measurement": "Log2fc Inositol hexakisphosphate kinase 1 (Ip6k1)", "setting": "ONGHEPA1 cells; TGF-β vs TGF-β+eupatilin", "value": "−infinite"},
      {"measurement": "Log2fc Integral beta 5 (Itgb5)", "setting": "ONGHEPA1 cells; TGF-β vs TGF-β+eupatilin", "value": "−infinite"},
      {"measurement": "Log2fc Interleukin 18 receptor accessory protein (Il18rap)", "setting": "ONGHEPA1 cells; TGF-β vs TGF-β+eupatilin", "value": 1.69},
      {"measurement": "Log2fc Intersectin 1 (SH3 domain protein 1A) (Itsn1)", "setting": "ONGHEPA1 cells; TGF-β vs TGF-β+eupatilin", "value": "infinite"},
      {"measurement": "Log2fc Laminin, alpha 4 (Lama4)", "setting": "ONGHEPA1 cells; TGF-β vs TGF-β+eupatilin", "value": "−1.29"},
      {"measurement": "Log2fc Latent transforming growth factor beta binding protein 1 (Ltbp1)", "setting": "ONGHEPA1 cells; TGF-β vs TGF-β+eupatilin", "value": 3.32}
    ]}
  ]
}
